Measurements as given in patent publication US12577255B2, “MDM2-based modulators of proteolysis and associated methods of use” (Arvinas Operations, Inc., priority 2015, dated 2026).

What follows are molecules tested on p53 (assay: Western blot of HCT116 cells, p53 level). Details: Western blot (FIG. 2, FIG. 3).
Format: cell-based, human
With `COc1cc(C(=O)NCCOCCOCC(=O)N[C@H](C(=O)N2C[C@H](O)C[C@H]2C(=O)NCc2ccc(-c3scnc3C)cc2)C(C)(C)C)ccc1NC(=O)[C@@H]1N[C@@H](CC(C)(C)C)[C@](C#N)(c2ccc(Cl)cc2F)[C@H]1c1cccc(Cl)c1F` [Compound A1907] the p53 level increase was “dose dependent p53 level increase”.
For `COc1cc(C(=O)NCCOCCOCCOCCOCC(=O)N[C@H](C(=O)N2C[C@H](O)C[C@H]2C(=O)NCc2ccc(-c3scnc3C)cc2)C(C)(C)C)ccc1NC(=O)C1NC(CC(C)(C)C)C(C#N)(c2ccc(Cl)cc2F)C1c1cccc(Cl)c1F` (mixture of isomers) [Compound A1895, 3-(3-chloro-2-fluorophenyl)-4-(4-chloro-2-fluorophenyl)-4-cyano-5-(2,2-dimethylpropyl)-N-{4-[(1-{[(2S)-1-[(2S,4R)-4-hydroxy-2-({[4-(4-methyl-1,3-thiazol-5-yl)phenyl]methyl}carbamoyl)pyrrolidin-1-yl]-3,3-dimethyl-1-oxobutan-2-yl]carbamoyl}-2,5,8,11-tetraoxatridecan-13-yl)carbamoyl]-2-methoxyphenyl}pyrrolidine-2-carboxamide], the p53 level increase was “dose dependent p53 level increase”.

What follows are molecules tested against T1, bromodomain-containing protein 4 (BRD4) (Homo sapiens, UniProt O60885) (assay: BRD4 Western blot (degradation)). Details: at 1 μM; VCaP cells, 16 h.
T1 construct: VCaP cells were chased from ATCC and cultured in Dulbecco's Modified Eagle's Medium; host or cells: VCaP
Format: cell-based
Protocol: The following biological assays were performed to evaluate the protein degradation in various cell types using representative compounds disclosed. The degradation of the following proteins were evaluated: bromodomain-containing protein 4 (BRD4), androgen receptor (AR), c-Myc, c-Jun N-terminal kinases (JNK), and enhancer of zeste homolog 2 (EZH2).
VCaP cells were chased from ATCC and cultured in Dulbecco's Modified Eagle's Medium (ATCC), supplemented with 10% FBS (ATCC) and Penicillin/Streptomycin (Life Technologies). DMSO control and compound treatments (0.03 μM to 1 μM) were performed in 12-well plates for 16 h. cells were harvested, and lysed in RIPA buffer (50 mM Tris pH8, 150 mM NaCl, 1% Tx-100, 0.1% SDS, 0.5% sodium deoxycholate) supplemented with protease and phosphatase inhibitors. Lysates were clarified at 16,000 g for 10 minutes, and protein concentration was determined. Equal amount of protein (20 μg) was subjected to SDS-PAGE analysis and followed by immunoblotting according to standard protocols. The antibodies used were BRD4 (Cell signaling #13440), and Actin (Sigma #5441). Detection reagents were Clarity Western ELC substrate (Bio-rad #170-5060).
`Cc1sc2c(c1C)C(c1ccc(Cl)cc1)=N[C@@H](CC(=O)NCCOCCOCCOCCNC(=O)C1N[C@@H](CC(C)(C)C)[C@](C#N)(c3ccc(Cl)cc3F)[C@H]1c1cccc(Cl)c1F)c1nnc(C)n1-2` (stereo partly drawn) [Compound A1306, N-(2-{2-[2-(2-{[3-(3-chloro-2-fluorophenyl)-4-(4-chloro-2-fluorophenyl)-4-cyano-5-(2,2-dimethylpropyl)pyrrolidin-2-yl]formamido}ethoxy)ethoxy]ethoxy}ethyl)-2-[(9S)-7-(4-chlorophenyl)-4,5,13-trimethyl-3-thia-1,8,11,12-tetraazatricyclo[8.3.0.0^2,^6]trideca-2(6),4,7,10,12-pentaen-9-yl]acetamide] was tested, and the “Degradation activity BRD4” value was “B (25 to 50% degradation at 1 μM)”.
With `COc1cc(C(=O)NCCOCCOCCNC(=O)C[C@@H]2N=C(c3ccc(Cl)cc3)c3c(sc(C)c3C)-n3c(C)nnc32)ccc1NC(=O)C1N[C@@H](CC(C)(C)C)[C@](C#N)(c2ccc(Cl)cc2F)[C@H]1c1cccc(Cl)c1F` (stereo partly drawn) [Compound A1863, 3-(3-chloro-2-fluorophenyl)-4-(4-chloro-2-fluorophenyl)-N-[4-({2-[2-(2-{2-[(9S)-7-(4-chlorophenyl)-4,5,13-trimethyl-3-thia-1,8,11,12-tetraazatricyclo-[8.3.0.0^2,^6]trideca-2(6),4,7,10,12-pentaen-9-yl]acetamido}ethoxy)ethoxy]-ethyl}carbamoyl)-2-methoxyphenyl]-4-cyano-5-(2,2-dimethylpropyl)pyrrolidine-2-carboxamide] the “Degradation activity BRD4” value was “B (25 to 50% degradation at 1 μM)”.
In the case of `COc1cc(C(=O)NCCOCCOCCOCCNC(=O)C[C@@H]2N=C(c3ccc(Cl)cc3)c3c(sc(C)c3C)-n3c(C)nnc32)ccc1NC(=O)[C@@H]1N[C@@H](CC(C)(C)C)[C@](C#N)(c2ccc(Cl)cc2F)[C@H]1c1cccc(Cl)c1F` [Compound A1874, (2R,3S,4R,5S)-3-(3-chloro-2-fluorophenyl)-4-(4-chloro-2-fluorophenyl)-N-{4-[(2-{2-[2-(2-{2-[(9S)-7-(4-chlorophenyl)-4,5,13-trimethyl-3-thia-1,8,11,12-tetraazatricyclo[8.3.0.0^2,^6]trideca-2(6),4,7,10,12-pentaen-9-yl]acetamido}ethoxy)ethoxy]ethoxy}ethyl)carbamoyl]-2-methoxyphenyl}-4-cyano-5-(2,2-dimethylpropyl)pyrrolidine-2-carboxamide], the “Degradation activity BRD4” value is reported as “B (25 to 50% degradation at 1 μM)”.
With `Cc1sc2c(c1C)C(c1ccc(Cl)cc1)=N[C@@H](CC(=O)NCCOCCOCCOCCOCCOCCNC(=O)C1NC(CC(C)(C)C)C(C#N)(c3ccc(Cl)cc3F)C1c1cccc(Cl)c1F)c1nnc(C)n1-2` (stereo partly drawn) [Compound A1283, N-(17-{[3-(3-chloro-2-fluorophenyl)-4-(4-chloro-2-fluorophenyl)-4-cyano-5-(2,2-dimethylpropyl)pyrrolidin-2-yl]formamido}-3,6,9,12,15-pentaoxaheptadecan-1-yl)-2-[(9S)-7-(4-chlorophenyl)-4,5,13-trimethyl-3-thia-1,8,11,12-tetraazatricyclo-[8.3.0.0^2,^6]trideea-2(6),4,7,10,12-pentaen-9-yl]acetamide] the “Degradation activity BRD4” value was “B (25 to 50% degradation at 1 μM)”.
In the case of `COc1cc(C(=O)NCCOCCOCCOCCNC(=O)C[C@@H]2N=C(c3ccc(Cl)cc3)c3c(sc(C)c3C)-n3c(C)nnc32)ccc1NC(=O)[C@H]1N[C@H](CC(C)(C)C)[C@@](C#N)(c2ccc(Cl)cc2F)[C@@H]1c1cccc(Cl)c1F` [Compound A1875, (2S,3R,4S,5R)-3-(3-chloro-2-fluorophenyl)-4-(4-chloro-2-fluorophenyl)-N-{4-[(2-{2-[2-(2-{2-[(9S)-7-(4-chlorophenyl)-4,5,13-trimethyl-3-thia-1,8,11,12-tetraazatricyclo[8.3.0.0^2,^6]trideca-2(6),4,7,10,12-pentaen-9-yl]acetamido}ethoxy)ethoxy]ethoxy}ethyl)carbamoyl]-2-methoxyphenyl}-4-cyano-5-(2,2-dimethylpropyl)pyrrolidine-2-carboxamide], the “Degradation activity BRD4” value is reported as “A (0 to 25% degradation at 1 μM)”.
`COc1cc(C(=O)NCCOCCOCCNC(=O)C[C@@H]2N=C(c3ccc(Cl)cc3)c3c(sc(C)c3C)-n3c(C)nnc32)ccc1NC(=O)[C@H]1N[C@H](CC(C)(C)C)[C@@](C#N)(c2ccc(Cl)cc2F)[C@@H]1c1cccc(Cl)c1F` [Compound A1865, (2S,3R,4S,5R)-3-(3-chloro-2-fluorophenyl)-4-(4-chloro-2-fluorophenyl)-N-[4-({2-[2-(2-{2-[(9S)-7-(4-chlorophenyl)-4,5,13-trimethyl-3-thia-1,8,11,12-tetraazatricyclo-[8.3.0.0^2,^6]trideca-2(6),4,7,10,12-pentaen-9-yl]acetamido}ethoxy)ethoxy]ethyl}-carbamoyl)-2-methoxyphenyl]-4-cyano-5-(2,2-dimethylpropyl)pyrrolidine-2-carboxamide] was tested, and the “Degradation activity BRD4” value was “A (0 to 25% degradation at 1 μM)”.
For `COc1cc(C(=O)NCCOCCNC(=O)C[C@@H]2N=C(c3ccc(Cl)cc3)c3c(sc(C)c3C)-n3c(C)nnc32)ccc1NC(=O)C1N[C@@H](CC(C)(C)C)[C@](C#N)(c2ccc(Cl)cc2F)[C@H]1c1cccc(Cl)c1F` (stereo partly drawn) [Compound A1890, 3-(3-chloro-2-fluorophenyl)-4-(4-chloro-2-fluorophenyl)-N-(4-{[2-(2-{2-[(9S)-7-(4-chlorophenyl)-4,5,13-trimethyl-3-thia-1,8,11,12-tetraazatricyclo[8.3.0.0^2,^6]-trideca-2(6),4,7,10,12-pentaen-9-yl]acetamido}ethoxy)ethyl]carbamoyl}-2-methoxyphenyl)-4-cyano-5-(2,2-dimethylpropyl)pyrrolidine-2-carboxamide], the “Degradation activity BRD4” value was “C (larger than 50% degradation at 1 μM)”.
For `COc1cc(C(=O)NCCOCCOCCOCCOCCNC(=O)C[C@@H]2N=C(c3ccc(Cl)cc3)c3c(sc(C)c3C)-n3c(C)nnc32)ccc1NC(=O)C1N[C@@H](CC(C)(C)C)[C@](C#N)(c2ccc(Cl)cc2F)[C@H]1c1cccc(Cl)c1F` (stereo partly drawn) [Compound A1876, 3-(3-chloro-2-fluorophenyl)-4-(4-chloro-2-fluorophenyl)-N-{4-[(14-{2-[(9S)-7-(4-chlorophenyl)-4,5,13-trimethyl-3-thia-1,8,11,12-tetraazatricyclo[8.3.0.0^2,^6]-trideca-2(6),4,7,10,12-pentaen-9-yl]acetamido}-3,6,9,12-tetraoxatetradecan-1-yl)carbamoyl]-2-methoxyphenyl}-4-cyano-5-(2,2-dimethylpropyl)pyrrolidine-2-carboxamide], the “Degradation activity BRD4” value was “C (larger than 50% degradation at 1 μM)”.
With `Cc1sc2c(c1C)C(c1ccc(Cl)cc1)=N[C@@H](CC(=O)NCCOCCOCCOCCOCCNC(=O)C1N[C@@H](CC(C)(C)C)[C@](C#N)(c3ccc(Cl)cc3F)[C@H]1c1cccc(Cl)c1F)c1nnc(C)n1-2` (stereo partly drawn) [Compound A1307, N-(14-{[3-(3-chloro-2-fluorophenyl)-4-(4-chloro-2-fluorophenyl)-4-cyano-5-(2,2-dimethylpropyl)pyrrolidin-2-yl]formamido}-3,6,9,12-tetraoxatetradecan-1-yl)-2-[(9S)-7-(4-chlorophenyl)-4,5,13-trimethyl-3-thia-1,8,11,12-tetraazatricyclo-[8.3.0.0^2,^6]trideca-2(6),4,7,10,12-pentaen-9-yl]acetamide] the “Degradation activity BRD4” value was “C (larger than 50% degradation at 1 μM)”.
For `COc1cc(C(=O)NCCOCCOCCOCCNC(=O)C[C@@H]2N=C(c3ccc(Cl)cc3)c3c(sc(C)c3C)-n3c(C)nnc32)ccc1NC(=O)C1N[C@@H](CC(C)(C)C)[C@](C#N)(c2ccc(Cl)cc2F)[C@H]1c1cccc(Cl)c1F` (stereo partly drawn) [Compound A1829, 3-(3-chloro-2-fluorophenyl)-4-(4-chloro-2-fluorophenyl)-N-{4-[(2-{2-[2-(2-{2-[(9S)-7-(4-chlorophenyl)-4,5,13-trimethyl-3-thia-1,8,11,12-tetraazatricyclo[8.3.0.0^2,^6]trideca-2(6),4,7,10,12-pentaen-9-yl]acetamido}ethoxy)ethoxy]ethoxy}ethyl)carbamoyl]-2-methoxyphenyl}-4-cyano-5-(2,2-dimethylpropyl)pyrrolidine-2-carboxamide], the “Degradation activity BRD4” value was “B (25 to 50% degradation at 1 μM)”.
